Assays:
[1] = biological target: soluble human BACE1 catalytic domain (Homo sapiens (Human), UniProt P56817); experiment: BACE1 HTRF FRET Assay; assay type: biochemical; conditions: Ki calculated from IC50 using the Cheng-Prusoff equation; QSY7-APPswe-Eu substrate, pH 5.0; read-out: BACE-1 Ki
Source text: Na^+-Acetate pH 5.0; 1% Brij-35; Glycerol; Dimethyl Sulfoxide (DMSO); Recombinant human soluble BACE1 catalytic domain (>95% pure); APP Swedish mutant peptide substrate (QSY7-APP^swe-Eu): QSY7-EISEVNLDAEFC-Europium-amide.
A homogeneous time-resolved FRET assay can be used to determine IC50 values for inhibitors of the soluble human BACE1 catalytic domain. This assay monitors the increase of 620 nm fluorescence that resulted from BACE1 cleavage of an APPswedish APP^swe mutant peptide FRET substrate (QSY7-EISEVNLDAEFC-Europium-amide). This substrate contains an N-terminal QSY7 moiety that serves as a quencher of the C-terminal Europium fluorophore (620 nm Em). In the absence of enzyme activity, 620 nm fluorescence is low in the assay and increased linearly over 3 hours in the presence of uninhibited BACE1 enzyme. Inhibition of BACE1 cleavage of the QSY7-APP^swe-Eu substrate by inhibitors is manifested as a suppression of 620 nm fluorescence.
Varying concentrations of inhibitors at 3× the final desired concentration in a volume of 10 ul are preincubated with purified human BACE1 catalytic domain (3 nM in 10 μl) for 30 minutes at 30° C. in reaction buffer containing 20 mM Na-Acetate pH 5.0, 10% glycerol, 0.1% Brij-35 and 7.5% DSMO. Reactions are initiated by addition of 10 μl of 600 nM QSY7-APP^swe-Eu substrate (200 nM final) to give a final reaction volume of 30 μl in a 384 well Nunc HTRF plate. The reactions are incubated at 30° C. for 1.5 hours. The 620 nm fluorescence is then read on a Rubystar HTRF plate reader (BMG Labtechnologies) using a 50 millisecond delay followed by a 400 millisecond acquisition time window. Inhibitor IC50 values are derived from non-linear regression analysis of concentration response curves. Ki values are then calculated from IC50 values using the Cheng-Prusoff equation using a previously determined […] of 8 μM for the QSY7-APP^swe-Eu substrate at BACE1.

[2] = biological target: purified human autoBACE-2 (Homo sapiens (Human), UniProt Q9Y5Z0); experiment: BACE-2 Assay (BACE-HTRF assay); assay type: biochemical; conditions: Ki calculated from IC50 using the Cheng-Prusoff equation; QSY7-EISEVNLDAEFC-Eu-amide substrate, pH 5.0
Procedure: Inhibitor IC50s at purified human autoBACE-2 are determined in a time-resolved endpoint proteolysis assay that measures hydrolysis of the QSY7-[…]-Eu-amide FRET peptide substrate (BACE-HTRF assay). […] DMSO is present at 5% final concentration in the assay. Following laser excitation of sample wells at 320 nm, the fluorescence signal at 620 nm is collected for 400 ms following a 50 μs delay on a RUBYstar HTRF plate reader (BMG Labtechnologies). Raw RFU data is normalized to maximum (1.0 nM BACE/DMSO) and minimum (no enzyme/DMSO) RFU values. […] The Ki values are calculated from the IC50 using the Cheng-Prusoff equation.

purified human autoBACE-2, sequence (Q9Y5Z0 63-473 limits assumed): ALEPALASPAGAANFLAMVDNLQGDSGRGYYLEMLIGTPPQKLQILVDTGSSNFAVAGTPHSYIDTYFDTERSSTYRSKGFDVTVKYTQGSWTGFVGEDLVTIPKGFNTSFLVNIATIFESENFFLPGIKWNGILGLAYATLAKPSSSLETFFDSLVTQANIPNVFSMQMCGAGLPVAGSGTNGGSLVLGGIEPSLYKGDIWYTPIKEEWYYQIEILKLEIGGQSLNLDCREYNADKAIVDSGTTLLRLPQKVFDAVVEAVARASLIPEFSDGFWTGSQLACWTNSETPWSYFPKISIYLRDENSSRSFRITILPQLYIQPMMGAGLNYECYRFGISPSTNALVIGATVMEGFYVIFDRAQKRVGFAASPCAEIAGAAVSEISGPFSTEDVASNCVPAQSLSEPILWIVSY
soluble human BACE1 catalytic domain, sequence (P56817 75-416): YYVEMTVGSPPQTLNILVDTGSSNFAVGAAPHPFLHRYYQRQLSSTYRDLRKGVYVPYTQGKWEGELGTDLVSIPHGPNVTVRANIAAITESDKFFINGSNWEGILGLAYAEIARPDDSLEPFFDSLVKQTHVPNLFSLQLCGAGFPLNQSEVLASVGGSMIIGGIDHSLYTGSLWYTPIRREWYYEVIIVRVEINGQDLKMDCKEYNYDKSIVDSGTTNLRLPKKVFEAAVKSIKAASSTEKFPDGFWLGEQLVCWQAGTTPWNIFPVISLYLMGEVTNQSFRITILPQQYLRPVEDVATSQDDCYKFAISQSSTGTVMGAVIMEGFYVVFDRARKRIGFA

Row | Compound | Ki [1] | Ki [2]
1 | CN1C(=N)N[C@]2(C)c3cc(NC(=O)c4ccc(OC(F)(F)F)cn4)ccc3OCC[C@@H]2S1(=O)=O [Example 19, N-((4aS,11bR)-2-imino-3,11b-dimethyl-4,4-dioxido-2,3,4a,5,6,11b-hexahydro-1H-benzo[2,3]oxepino[4,5-e][1,2,4]thiadiazin-10-yl)-5-(trifluoromethoxy)picolinamide] | 8 nM | 104 nM
2 | Cc1cnc(C(=O)Nc2ccc3c(c2)[C@@]2(C)NC(=N)N(C)S(=O)(=O)[C@@H]2CCC3)cn1 [Example 40, N-((4aR,11bR)-2-imino-3,11b-dimethyl-4,4-dioxido-1,2,3,4a,5,6,7,11b-octahydrobenzo[6,7]cyclohepta[1,2-e][1,2,4]thiadiazin-10-yl)-5-methylpyrazine-2-carboxamide] | 1390 nM | 2710 nM
3 | CN1C(=N)N[C@]2(C)c3cc(NC(=O)c4ccc(C#N)cn4)ccc3OCC[C@@H]2S1(=O)=O [Example 16, 5-cyano-N-((4aS,11bR)-2-imino-3,11b-dimethyl-4,4-dioxido-2,3,4a,5,6,11b-hexahydro-1H-benzo[2,3]oxepino[4,5-e][1,2,4]thiadiazin-10-yl)picolinamide] | 1 nM | 14 nM
4 | CN1C(=N)N[C@]2(C)c3cc(NCC4CC4)ccc3OCC[C@@H]2S1(=O)=O [Example 48, (4aS,11bR)-10-((cyclopropylmethyl)amino)-2-imino-3,11b-dimethyl-2,3,4a,5,6,11b-hexahydro-1H-benzo[2,3]oxepino[4,5-e][1,2,4]thiadiazine 4,4-dioxide] | 880 nM | 2010 nM
5 | CN1C(=N)N[C@]2(C)c3cc(NC(=O)c4ccc(C(F)(F)F)cn4)ccc3OCC[C@@H]2S1(=O)=O [Example 18, N-((4aS,11bR)-2-imino-3,11b-dimethyl-4,4-thoxido-2,3,4a,5,6,11b-hexahydro-1H-benzo[2,3]oxepino[4,5-e][1,2,4]thiadiazin-10-yl)-5-(trifluoromethyl)picolinamide] | 11 nM | 79 nM
6 | CN1C(=N)N[C@]2(C)c3cc(NC(=O)c4ccc(C#N)cn4)ccc3CCC[C@H]2S1(=O)=O [Example 39] | 60 nM | 315 nM
7 | CN1C(=N)N[C@]2(C)c3cc(NC(=O)c4ccc(F)cn4)ccc3OCC[C@H]2S1(=O)=O [Example 7, 5-fluoro-N-((4aR,11bR)-2-imino-3,11b-dimethyl-4,4-dioxido-2,3,4a,5,6,11b-hexahydro-1H-benzo[2,3]oxepino[4,5-e][1,2,4]thiadiazin-10-yl)picolinamide] | 108 nM | 159 nM
8 | CN1C(=N)N[C@]2(C)c3cc(NC(=O)c4ncc(Cl)cc4F)ccc3OCC[C@@H]2S1(=O)=O [Example 13, 5-chloro-3-fluoro-N-((4aS,11bR)-2-imino-3,11b-dimethyl-4,4-dioxido-2,3,4a,5,6,11b-hexahydro-1H-benzo[2,3]oxepino[4,5-e][1,2,4]thiadiazin-10-yl)picolinamide] | 4 nM | 4 nM
9 | Cc1cnc(C(=O)Nc2ccc3c(c2)[C@@]2(C)NC(=N)N(C)S(=O)(=O)[C@H]2CCC3)cn1 [Example 24, N-((4aS,11bR)-2-imino-3,11b-dimethyl-4,4-dioxido-1,2,3,4a,5,6,7,11b-octahydrobenzo[6,7]cyclohepta[1,2-e][1,2,4]thiadiazin-10-yl)-5-methylpyrazine-2-carboxamide] | 168 nM | 251 nM
10 | CN1C(=N)N[C@]2(C)c3cc(NC(=O)c4ccc(Cl)cn4)ccc3OCC[C@H]2S1(=O)=O [Example 1, 5-chloro-N-((4aR,11bR)-2-imino-3,11b-dimethyl-4,4-dioxido-2,3,4a,5,6,11b-hexahydro-1H-benzo[2,3]oxepino[4,5-e][1,2,4]thiadiazin-10-yl)picolinamide] | 72 nM | 65 nM
11 | CN1C(=N)N[C@]2(C)c3cc(NC(=O)c4ncc(Cl)cc4F)ccc3CCC[C@@H]2S1(=O)=O [Example 25, 5-chloro-3-fluoro-N-((4aS,11bR)-2-imino-3,11b-dimethyl-4,4-dioxido-1,2,3,4a,5,6,7,11b-octahydrobenzo[6,7]cyclohepta[1,2-e][1,2,4]thiadiazin-10-yl)picolinamide] | 7 nM | 5 nM
12 | Cc1ccc(C(=O)Nc2ccc3c(c2)[C@@]2(C)NC(=N)N(C)S(=O)(=O)[C@H]2CCO3)nc1 [Example 17, N-((4aS,11bR)-2-imino-3,11b-dimethyl-4,4-dioxido-2,3,4a,5,6,11b-hexahydro-1H-benzo[2,3]oxepino[4,5-e][1,2,4]thiadiazin-10-yl)-5-methylpicolinamide] | 18 nM | 16 nM
13 | CN1C(=N)N[C@]2(C)c3cc(NC(=O)c4ccc(F)cn4)ccc3CCC[C@H]2S1(=O)=O [Example 37, 5-fluoro-N-((4aR,11bR)-2-imino-3,11b-dimethyl-4,4-dioxido-1,2,3,4a,5,6,7,11b-octahydrobenzo[6,7]cyclohepta[1,2-e][1,2,4]thiadiazin-10-yl)picolinamide] | 159 nM | 96 nM
14 | COc1cnc2c(Nc3ccc4c(c3)[C@@]3(C)NC(=N)N(C)S(=O)(=O)[C@H]3CCC4)nccc2c1 [Example 46, (4aS,11bR)-2-imino-10-((3-methoxy-1,7-naphthyridin-8-yl)amino)-3,11b-dimethyl-1,2,3,4a,5,6,7,11b-octahydrobenzo[6,7]cyclohepta[1,2-e][1,2,4]-thiadiazine 4,4-dioxide] | 108 nM | 251 nM
15 | COc1cnc2c(Nc3ccc4c(c3)[C@@]3(C)NC(=N)N(C)S(=O)(=O)[C@H]3CCO4)nccc2n1 [Example 41, (4aS,11bR)-2-imino-10-((2-methoxypyrido[3,4-b]pyrazin-5-yl)amino)-3,11b-dimethyl-2,3,4a,5,6,11b-hexahydro-1H-benzo[2,3]oxepino[4,5-e][1,2,4]-thiadiazine 4,4-dioxide] | 60 nM | 135 nM
16 | CN1C(=N)N[C@]2(C)c3cc(NC(=O)c4ccc(F)cn4)ccc3CCC[C@@H]2S1(=O)=O [Example 28, 5-fluoro-N-((4aS,11bR)-2-imino-3,11b-dimethyl-4,4-dioxido-1,2,3,4a,5,6,7,11b-octahydrobenzo[6,7]cyclohepta[1,2-e][1,2,4]thiadiazin-10-yl)picolinamide] | 18 nM | 7 nM
17 | COc1cnc(C(=O)Nc2ccc3c(c2)[C@@]2(C)NC(=N)N(C)S(=O)(=O)[C@@H]2CCO3)cn1 [Example 9, N-((4aR,11bR)-2-imino-3,11b-dimethyl-4,4-dioxido-2,3,4a,5,6,11b-hexahydro-1H-benzo[2,3]oxepino[4,5-e][1,2,4]thiadiazin-10-yl)-5-methoxypyrazine-2-carboxamide] | 591 nM | 5610 nM
18 | CN1C(=N)N[C@]2(C)c3cc(NC(=O)c4ccc(OC(F)F)cn4)ccc3CCC[C@H]2S1(=O)=O [Example 38, 5-(difluoromethoxy)-N-((4aR,11bR)-2-imino-3,11b-dimethyl-4,4-dioxido-1,2,3,4a,5,6,7,11b-octahydrobenzo[6,7]cyclohepta[1,2-e][1,2,4]thiadiazin-10-yl)picolinamide] | 80 nM | 857 nM
19 | COc1cnc2c(Nc3ccc4c(c3)[C@@]3(C)NC(=N)N(C)S(=O)(=O)[C@H]3CCC4)ccnc2n1 [Example 45, (4aS,11bR)-2-imino-10-((3-methoxypyrido[2,3-b]pyrazin-8-yl)amino)-3,11b-dimethyl-1,2,3,4a,5,6,7,11b-octahydrobenzo[6,7]cyclohepta[1,2-e][1,2,4]-thiadiazine 4,4-dioxide] | 547 nM | 2440 nM
20 | CN1C(=N)N[C@]2(C)c3cc(NC(=O)c4ccc(OC(F)F)cn4)ccc3OCC[C@@H]2S1(=O)=O [Example 12, 5-(difluoromethoxy)-N-((4aS,11bR)-2-imino-3,11b-dimethyl-4,4-dioxido-2,3,4a,5,6,11b-hexahydro-1H-benzo[2,3]oxepino[4,5-e][1,2,4]thiadiazin-10-yl)picolinamide] | 5 nM | 58 nM
